This note sets out measurements from patent publication US8957057B2 (priority 2009, dated 2015).

The test system of series [1] is Prostate specific antigen (PSA) secretion in LNCap.FGC cells. The series is described as follows: cells. The conditions noted are these: for PSA concentration: 48 hours. From the text: Prostate specific antigen (PSA) is a protein secreted by the […] cells of prostate. PSA facilitates semen liquification and presents in male serum in minute amount. In the serum of male subjects suffering from prostate cancer, benign prostatic hyperplasia or prostatic infection, the quantity of PSA presented in serum may increase. Therefore, PSA is so far the most valuable marker in screening and diagnosing prostate tumors. PSA also plays an important role in determining a cancer's stage of development and evaluating the effect of treatment. The amounts of PSA were determined by using Prostate Specific Antigen ELISA kit (Cat. No. BQ067T, Bio Quant, USA). […] 50 μl of each of the retrieved culture media and 50 μl of each of the standard PSA of 0, 2, 4, 8, 25, and 50 ng/ml were added to the wells of a 96-well plate, respectively. Then, 50 μl assay buffer was further added to the wells, and the plate was incubated at room temperature in the dark for 30 minutes. The supernatant was removed and the wells were washed three times with 300 μl wash buffer. […] The supernatant was removed and the wells and washed three times with 300 μl wash buffer. […] Within 15 minutes after completion of the previous step, the wells were examined by a ELISA Reader at 450 nm.

The target of the next series is androgen receptor (Homo sapiens, UniProt P10275). The series is described as follows: cell-based. In kind it is cell-based.
Chain of androgen receptor (P10275 whole entry, looked up): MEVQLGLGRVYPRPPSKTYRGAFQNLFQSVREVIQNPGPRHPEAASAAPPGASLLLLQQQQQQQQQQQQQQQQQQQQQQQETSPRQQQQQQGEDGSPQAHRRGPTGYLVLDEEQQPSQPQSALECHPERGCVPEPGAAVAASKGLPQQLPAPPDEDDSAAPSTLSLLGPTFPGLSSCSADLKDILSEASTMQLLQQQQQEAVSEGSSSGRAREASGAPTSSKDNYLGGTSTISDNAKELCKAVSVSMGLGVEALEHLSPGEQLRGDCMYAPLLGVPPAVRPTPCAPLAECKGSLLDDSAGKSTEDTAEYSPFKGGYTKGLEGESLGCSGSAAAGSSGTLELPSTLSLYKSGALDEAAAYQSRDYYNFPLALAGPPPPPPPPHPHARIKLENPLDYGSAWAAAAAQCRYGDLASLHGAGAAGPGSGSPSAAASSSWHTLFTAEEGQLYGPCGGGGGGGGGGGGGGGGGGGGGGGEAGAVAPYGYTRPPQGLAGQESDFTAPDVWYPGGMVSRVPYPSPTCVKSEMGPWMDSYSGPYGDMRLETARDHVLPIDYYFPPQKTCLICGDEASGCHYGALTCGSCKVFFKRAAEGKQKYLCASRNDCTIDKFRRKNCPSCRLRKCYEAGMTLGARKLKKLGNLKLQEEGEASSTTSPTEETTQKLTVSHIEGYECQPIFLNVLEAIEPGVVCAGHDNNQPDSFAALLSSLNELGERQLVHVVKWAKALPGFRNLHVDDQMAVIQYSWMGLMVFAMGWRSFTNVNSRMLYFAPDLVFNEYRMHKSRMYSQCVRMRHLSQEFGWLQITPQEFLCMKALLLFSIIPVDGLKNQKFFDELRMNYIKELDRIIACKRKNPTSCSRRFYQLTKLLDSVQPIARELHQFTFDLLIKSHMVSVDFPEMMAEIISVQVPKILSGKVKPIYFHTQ
Series [2] concerns MRC-5, MCF-7, HepG2, AGS, HeLa, HEK 293 cells. The conditions noted are these: MTT, 72 hours, up to 20 μM. On the procedure:
(§1) The survive rate of cell was determined by the MTT (3-(4,5-dimethyl-2-thiazolyl)-2,5-diphenyl tetrazolium bromide) method.
(§2) The supernatant of the culture was removed.

The subject of another series is LNCap.FGC cells. The conditions noted are these: MTT, 72 hours, up to 20 μM. As for the experimental part: as §1, §2

“And” between values parts separate entries of the source, which are not always exact repeats. Identical values can stand only once.

Description for androgen receptor: Human MDA-MB-453 cells were used in this assay. The cells in the exponential phase of growth (cultured in RPMI 1640 medium (Gibco, USA), 10% FBS) were washed off with 1 ml of 0.05% trypsin, centrifuged and collected in a centrifuge tube. 1×10^7 cells were resuspended in 270 μl BES medium (5 mM BES in RPMI 1640 medium) and 8 to 10 μg of pPSA-SEAP2 plasmid (see FIG. 4) were also added to the medium.
25 μl of media were retrieved from each cell of the 96-well plate and heated in a 65° C. water bath for 30 minutes. The media were then treated by Phospha-Light™ assay system (Applied Biosystem) in order to detect the secreted alkaline phosphatase (SEAP) reporter protein. The intensity of luminescence was detected by Victor™ Light luminescence counter to determine the activity of the samples in the modulation of the androgen receptor.
Human MDA-MB-453 cells were used in this assay. The cells in the exponential phase of growth (cultured in RPMI 1640 medium (Gibco), 10% FBS) were washed off with 1 ml of 0.05% trypsin, centrifuged and collected in a centrifuge tube. 1×10^7 cells were resuspended in 270 μl BES medium (5 mM BES in RPMI 1640 medium) and 8 to 10 μg of pPSA-SEAP2 plasmid (see FIG. 4) were also added to the medium.

Regarding `C[C@]12CCC(=O)C[C@@H]1CC[C@@H]1[C@@H]2CC[C@]2(C)[C@@H](O)CC[C@@H]12` [DHT, 5α-dihydrotestosterone, reference compound], the PSA concentration in series [1] (DHT 5 nM alone) was determined as 12.61 ng/mL.

Take `C/C=C/C1=CC2=C(CO1)C(=O)[C@]1(C)OC(=O)[C@H](C(=O)CCCCCCC)[C@H]1C2` [ankaflavin]: the inhibition at 26 µM on androgen receptor (MDA-MB-453, read-out: inhibition of the reporter activity) worked out at 41%.

For `C/C=C/C1=CC2=C(CO1)C(=O)[C@]1(C)OC(=O)[C@H](C(=O)CCCCC)[C@H]1C2` [monascin], the “inhibition of the reporter activity” value on androgen receptor worked out at 55%.

With `C/C=C/C1=CC2=C(CO1)C(=O)[C@]1(C)OC(=O)[C@H]([C@@H](O)CCCCC)[C@H]1C2` [monascuspiloin, (3S,3aR,9aR)-3a,4-dihydro-3-((S)-1-hydroxyhexyl)-9a-methyl-6-((E)-prop-1-enyl)-3H-furo [3,2-g]isochromene-2,9(8H,9aH)-dione], the PSA concentration in series [1] (DHT 5 nM + Monascuspiloin 5 μM) stood at 10.27 ng/mL; in series [1] (DHT 5 nM + Monascuspiloin 10 μM), 9.71 ng/mL; in series [1] (DHT 5 nM + Monascuspiloin 25 μM), 8.77 ng/mL. Moreover, in series [1] (Homo sapiens, read-out: inhibition of the production of PSA induced by DHT), the inhibition at 20 µM turned out to be 43%. For the same molecule, the “cytotoxic effect on the other 6 non-human-prostate-cancer cell lines” value in series [2] is “does not have a significant cytotoxic effect”. Also, the “cytotoxic effect on LNCap.FGC” value in the series with LNCap.FGC cells is “does not have a significant cytotoxic effect”. Further, the IC50 at androgen receptor (read-out: IC50 for inhibition of the activation of the androgen receptor) is ~12 µM and 12 µM.
